Values of other authors as cited in patent US20220249605A1, “Treatment of Mood and Anxiety Disorders” (Icahn School of Medicine At Mount Sinai, priority 2013, published 2022).
pEC50, pIC50, pKi: −log10 of the molar value. Bridge positions count the residues as written; N and C are the ends. Ends that are not written are not given here.

Columns and labels:
NPY Y2 receptor = biological target: T1, NPY Y2 receptor (Homo sapiens, UniProt P49146); details: read-out: IC50, Y2 receptor antagonist
T1 sequence (P49146 1-381): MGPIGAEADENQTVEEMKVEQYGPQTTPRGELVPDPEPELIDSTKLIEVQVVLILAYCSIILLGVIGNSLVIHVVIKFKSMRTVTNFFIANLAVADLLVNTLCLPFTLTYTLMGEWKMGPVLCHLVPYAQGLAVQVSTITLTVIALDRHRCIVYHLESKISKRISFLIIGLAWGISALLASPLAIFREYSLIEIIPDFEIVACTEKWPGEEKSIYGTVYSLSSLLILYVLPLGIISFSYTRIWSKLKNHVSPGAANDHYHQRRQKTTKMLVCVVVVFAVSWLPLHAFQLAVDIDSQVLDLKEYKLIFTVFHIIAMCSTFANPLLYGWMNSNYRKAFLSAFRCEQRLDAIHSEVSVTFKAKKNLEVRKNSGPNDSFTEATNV

[1] = anesthetized rats
[2] = anesthetized rats and dogs
Y1 receptors = biological target: T2, Y1 receptors (Homo sapiens, UniProt P25929)
T2 sequence (P25929 1-384): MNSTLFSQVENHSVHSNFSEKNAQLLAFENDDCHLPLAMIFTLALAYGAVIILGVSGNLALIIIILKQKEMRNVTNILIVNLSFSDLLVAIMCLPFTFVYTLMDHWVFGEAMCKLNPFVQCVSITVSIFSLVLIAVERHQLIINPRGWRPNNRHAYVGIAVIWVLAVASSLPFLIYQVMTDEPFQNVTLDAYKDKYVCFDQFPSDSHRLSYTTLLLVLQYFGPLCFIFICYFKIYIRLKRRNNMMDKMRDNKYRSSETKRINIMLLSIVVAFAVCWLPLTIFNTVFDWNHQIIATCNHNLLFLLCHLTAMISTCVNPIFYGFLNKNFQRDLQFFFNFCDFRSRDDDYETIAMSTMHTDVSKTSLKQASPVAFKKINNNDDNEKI

[3] = system: norepinephrine-stimulated cAMP accumulation in SK-N-MC cells; details: read-out: EC50, inhibition of norepinephrine-stimulated cAMP accumulation

CN(C)S(=O)(=O)c1ccc(NC(=S)N2CCC(C(O)(c3ccccc3)c3ccccc3)CC2)cc1 [CYM 9484]
pIC50 (NPY Y2 receptor): 7.72

(Leu^31, Pro^34)-Neuropeptide Y [H-3306]
Specificity (Y1 receptor) (Y1 receptor): Specific Y1 receptor

(Leu^31, Pro^34)-Neuropeptide Y [H-8575]
Specificity (Y1 receptor) (Y1 receptor): selective ligand for | Potency in increasing blood pressure compared with NPY [1]: showing an even higher

(Pro^34)-Neuropeptide Y [H-8580]
Effect on blood pressure [2]: increased blood | Inhibitory effects on cardiac vagal action [2]: contrast, showed no | Specificity (Y1 receptor) (Y1 receptor): selective NPY agonist

Tyr-Lys-Gly-(Cyclo(Glu^26-Lys^29), Pro^34)-Neuropeptide Y (25-36) (YKGREYIKLITRPRY; lactam 5-8; ends not checked) [H-3972]
pKi (Y1 receptors): 7.80 | pEC50 [3]: 7.92
